Experimental data published in PubChem BioAssay (NCI).
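Interpolation was linear, between the two tested concentrations surrounding the appropriate level; five concentrations were tested over 48 hours in 96-well plates. At the GI50, growth is halved. TGI marks complete inhibition of growth.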

What was measured:
Assay in all cases: NCI anticancer screen, dose series, 48 h
[1] = test system: MCF7 breast
[2] = test system: OVCAR-3 ovarian
[3] = test system: M14 melanoma
[4] = test system: SW-620 colon
[5] = test system: MOLT-4 leukemia
[6] = test system: A498 renal
[7] = test system: SF-268 CNS
[8] = test system: T-47D breast
[9] = test system: 786-0 renal
[10] = test system: NCI-H522 lung
[11] = test system: K-562 leukemia
[12] = test system: SK-MEL-5 melanoma
[13] = test system: MDA-MB-231 breast
[14] = test system: SF-539 CNS
[15] = test system: OVCAR-4 ovarian
[16] = test system: RPMI-8226 leukemia
[17] = test system: HOP-92 NSCLC
[18] = test system: SK-OV-3 ovarian
[19] = test system: SNB-19 CNS
[20] = test system: RXF 393 renal
[21] = test system: HL-60(TB) leukemia
[22] = test system: DU-145 prostate
[23] = test system: OVCAR-5 ovarian
[24] = test system: EKVX NSCLC
[25] = test system: U251 CNS
[26] = test system: SR leukemia
[27] = test system: HOP-62 NSCLC
[28] = test system: NCI-H226 lung
[29] = test system: TK-10 renal
[30] = test system: SF-295 CNS
[31] = test system: SK-MEL-2 melanoma
[32] = test system: HCT-116 colon
[33] = test system: OVCAR-8 ovarian
[34] = test system: KM12 colon
[35] = test system: HCT-15 colon
[36] = test system: HT29 colon
[37] = test system: HS 578T breast
[38] = test system: NCI/ADR-RES ovarian
[39] = test system: CAKI-1 renal
[40] = test system: MALME-3M melanoma
[41] = test system: COLO 205 colon
[42] = test system: UO-31 renal
[43] = test system: LOX IMVI melanoma
[44] = test system: A549 NSCLC
[45] = test system: SN12C renal
[46] = test system: BT-549 breast
[47] = test system: HCC-2998 colon
[48] = test system: PC-3 prostate
[49] = test system: SNB-75 CNS
[50] = test system: SK-MEL-28 melanoma
[51] = test system: NCI-H460 lung
[52] = test system: CCRF-CEM leukemia
[53] = test system: ACHN renal
[54] = test system: NCI-H23 lung
[55] = test system: UACC-62 melanoma
[56] = test system: MDA-MB-435

For `Cc1ccc(N(CC(=O)Nc2ccc(S(=O)(=O)NC3CCN(C)CC3)cc2)S(=O)(=O)c2ccc(Cl)cc2)cc1`, the GI50 [1] was 3.02 µM, the TGI [1] was 13.1 µM and the GI50 [2] was 2.99 µM. The TGI [2] was 8.77 µM, the GI50 [3] was 1.79 µM and the TGI [3] was 3.42 µM. It also gave a GI50 [4] of 1.84 µM, a TGI [4] of 3.61 µM and a GI50 [5] of 2.97 µM. For the same molecule, the TGI [5] was 10.1 µM, the GI50 [6] was 13.4 µM and the TGI [6] was 28.8 µM. The GI50 [7] was 2.67 µM, the TGI [7] was 8.26 µM and the GI50 [8] was 2.03 µM. The TGI [8] was 4.47 µM, the GI50 [9] was 2.08 µM and the TGI [9] was 5.23 µM. The GI50 [10] was 2.24 µM, the TGI [10] was 4.62 µM and the GI50 [11] was 2.23 µM. For the same molecule, the TGI [11] was 5 µM, the GI50 [12] was 1.83 µM and the TGI [12] was 3.29 µM. It also gave a GI50 [13] of 1.87 µM, a TGI [13] of 4.68 µM and a GI50 [14] of 1.85 µM. For the same molecule, the TGI [14] was 3.52 µM, the GI50 [15] was 5.13 µM and the TGI [15] was 19.7 µM. It also gave a GI50 [16] of 2.71 µM, a TGI [16] of 7.89 µM and a GI50 [17] of 1.86 µM. For the same molecule, the TGI [17] was 8.64 µM, the GI50 [18] was 5.45 µM and the TGI [18] was 17.8 µM. The GI50 [19] was 4.27 µM, the TGI [19] was 21.5 µM and the GI50 [20] was 1.65 µM. For the same molecule, the TGI [20] was 3.84 µM, the GI50 [21] was 2.21 µM and the TGI [21] was 4.93 µM. For the same molecule, the GI50 [22] was 3.27 µM, the TGI [22] was 11.2 µM and the GI50 [23] was 4.04 µM. For the same molecule, the TGI [23] was 17.1 µM, the GI50 [24] was 5.09 µM and the TGI [24] was 19.8 µM. It also gave a GI50 [25] of 2.35 µM, a TGI [25] of 5.83 µM and a GI50 [26] of 2.33 µM. For the same molecule, the TGI [26] was 7.46 µM, the GI50 [27] was 3.96 µM and the TGI [27] was 14.2 µM. The GI50 [28] was 5.37 µM, the TGI [28] was 23.4 µM and the GI50 [29] was 13.7 µM. For the same molecule, the TGI [29] was 27 µM, the GI50 [30] was 2.12 µM and the TGI [30] was 5.49 µM. For the same molecule, the GI50 [31] was 2.15 µM, the TGI [31] was 4.86 µM and the GI50 [32] was 1.69 µM. For the same molecule, the TGI [32] was 3.2 µM, the GI50 [33] was 3.61 µM and the TGI [33] was 12.1 µM. It also gave a GI50 [34] of 2.85 µM, a TGI [34] of 8.25 µM and a GI50 [35] of 11.9 µM. For the same molecule, the TGI [35] was 27.5 µM, the GI50 [36] was 2.88 µM and the TGI [36] was 7.5 µM. It also gave a GI50 [37] of 2.27 µM, a TGI [37] of 6.74 µM and a GI50 [38] of 16.8 µM. For the same molecule, the TGI [38] was 35.5 µM, the GI50 [39] was 14.7 µM and the TGI [39] was 28.4 µM. For the same molecule, the GI50 [40] was 1.72 µM, the TGI [40] was 3.65 µM and the GI50 [41] was 1.89 µM. For the same molecule, the TGI [41] was 3.89 µM, the GI50 [42] was 14.7 µM and the TGI [42] was 30.3 µM. It also gave a GI50 [43] of 1.89 µM, a TGI [43] of 3.76 µM and a GI50 [44] of 5 µM. The TGI [44] was 16.3 µM, the GI50 [45] was 3.05 µM and the TGI [45] was 13.1 µM. For the same molecule, the GI50 [46] was 12.6 µM, the TGI [46] was 27.8 µM and the GI50 [47] was 2.1 µM. It also gave a TGI [47] of 5.25 µM, a GI50 [48] of 2.86 µM and a TGI [48] of 10.7 µM. For the same molecule, the GI50 [49] was 2.95 µM, the TGI [49] was 15.7 µM and the GI50 [50] was 1.95 µM. It also gave a TGI [50] of 4.18 µM, a GI50 [51] of 2.02 µM and a TGI [51] of 4 µM. For the same molecule, the GI50 [52] was 2.94 µM, the TGI [52] was 11.1 µM and the GI50 [53] was 12 µM. The TGI [53] was 27.6 µM, the GI50 [54] was 10.1 µM and the TGI [54] was 24.5 µM. It also gave a GI50 [55] of 1.74 µM, a TGI [55] of 3.59 µM and a GI50 [56] of 1.86 µM. For the same molecule, the TGI [56] was 3.57 µM.
